In patent US20260248972A1, “DUAL RECEPTOR TARGETING RADIOLIGANDS AND USES THEREOF RELATED APPLICATIONS” (priority 2022, published 2026) one finds IC50 and tissue uptake data, which are given here for seven compounds.

Each structure is given as a SMILES string. *1 amine or outer side, *2 acyl side, *3 side chain or, on linkers, in order; H or OH if unused. Where a SMILES comes first, the peptide text is derived from it. Bridges are numbered along the chain shown (N, C = ends). Roman numbers before positions name the chains, in order. Side-chain parts run from the residue outwards. [ ]: non-standard residue; d: D form. The star is where a group is joined. ξ: configuration not given here. X1 = CC(C)(C)C(=O)CN1C(=O)[C@H](N*)CN(C2CCCCC2)c2ccccc21; DOTA = O=C(O)CN1CCN(CC(=O)O)CCN(CC(=O)*)CCN(CC(=O)O)CC1; γGlu = O=C(O)[C@H](CCC(=O)[*:2])N[*:1]; X2 = CC(=O)[C@H](Cc1ccc(O)cc1)N*; X3 = CC(=O)[C@@H](N*)[C@@H](C)O; 3Abz = Nc1cccc(C(=O)O)c1; ξF = NC(Cc1ccccc1)C(=O)O; ξE = NC(CCC(=O)O)C(=O)O; AEEA = NCCOCCOCC(=O)O; CO = O=C([*:1])[*:2]

In data set [1] the target is T1, CCK2R (Homo sapiens, UniProt P32239).
T1 construct: expressed in transfected cells; host or cells: HEK 293T cells
T1 sequence (P32239 1-447): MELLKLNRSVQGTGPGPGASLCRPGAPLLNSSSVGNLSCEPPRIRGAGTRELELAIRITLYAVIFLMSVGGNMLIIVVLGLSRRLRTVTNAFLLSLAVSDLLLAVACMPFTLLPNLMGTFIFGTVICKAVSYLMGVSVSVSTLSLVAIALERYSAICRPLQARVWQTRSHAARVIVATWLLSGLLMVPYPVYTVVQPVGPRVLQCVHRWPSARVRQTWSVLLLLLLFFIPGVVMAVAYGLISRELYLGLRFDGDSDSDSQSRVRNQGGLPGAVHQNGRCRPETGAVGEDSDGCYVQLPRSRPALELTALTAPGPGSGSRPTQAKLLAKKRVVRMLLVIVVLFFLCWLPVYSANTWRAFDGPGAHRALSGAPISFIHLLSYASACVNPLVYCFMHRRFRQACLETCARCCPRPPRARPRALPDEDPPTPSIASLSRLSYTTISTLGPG
As to the kind of experiment: Competitive binding (FACS) on CCK2R-transfected HEK 293T cells with Cy5-labeled F11N derivative. Conditions: Cy5-labeled F11N derivative competitive ligand (Table 4).

The target of data set [2] is T2, SSTR2 (Homo sapiens, UniProt P30874).
T2 construct: expressed in transfected cells; host or cells: HEK 293T cells
T2 sequence (P30874 whole entry, species assumed): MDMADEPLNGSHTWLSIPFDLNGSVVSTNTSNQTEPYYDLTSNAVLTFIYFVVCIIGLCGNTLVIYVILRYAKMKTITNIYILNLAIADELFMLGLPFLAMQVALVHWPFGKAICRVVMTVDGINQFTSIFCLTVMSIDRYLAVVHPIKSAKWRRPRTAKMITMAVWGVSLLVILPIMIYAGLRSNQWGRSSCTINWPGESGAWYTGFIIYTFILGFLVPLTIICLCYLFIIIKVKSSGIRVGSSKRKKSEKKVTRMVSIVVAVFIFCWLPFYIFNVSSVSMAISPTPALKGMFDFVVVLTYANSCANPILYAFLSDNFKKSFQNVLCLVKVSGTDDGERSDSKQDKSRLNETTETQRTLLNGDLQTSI
The data set is described as follows: Competitive binding (FACS) on SSTR2-transfected HEK 293T cells with Cy5-labled DOTA-TATE. Conditions: HEK 293T transfected, Cy5-labled DOTA-TATE competitive ligand (Table 4). How it is done: (§1) Binding Affinity Tested by Using Cy5-Labled Competitive Ligands.
(§2) HEK 293T cells were transfected with SSTR2 or CCK2R-expressing plasmid by Lipofectamine 2000 reagent. 24 hours after transfection, cells were harvested and suspended with assay buffer (1% OVA in DMEM). […] The testing compound was further supplemented into the wells at different concentrations. After incubation for 1 hour at dark, cells were washed and suspended in FACS buffer (1% OVA in DPBS). The fluorescent signal was detected by FACS machine and the binding affinity of the testing compound was evaluated by calculation of IC50 for competitive binding of reference compound.

In data set [3] the target is T3, CCK2R (Rattus norvegicus, UniProt P30553).
T3 construct: host or cells: AR42J cells
T3 sequence (P30553 1-452): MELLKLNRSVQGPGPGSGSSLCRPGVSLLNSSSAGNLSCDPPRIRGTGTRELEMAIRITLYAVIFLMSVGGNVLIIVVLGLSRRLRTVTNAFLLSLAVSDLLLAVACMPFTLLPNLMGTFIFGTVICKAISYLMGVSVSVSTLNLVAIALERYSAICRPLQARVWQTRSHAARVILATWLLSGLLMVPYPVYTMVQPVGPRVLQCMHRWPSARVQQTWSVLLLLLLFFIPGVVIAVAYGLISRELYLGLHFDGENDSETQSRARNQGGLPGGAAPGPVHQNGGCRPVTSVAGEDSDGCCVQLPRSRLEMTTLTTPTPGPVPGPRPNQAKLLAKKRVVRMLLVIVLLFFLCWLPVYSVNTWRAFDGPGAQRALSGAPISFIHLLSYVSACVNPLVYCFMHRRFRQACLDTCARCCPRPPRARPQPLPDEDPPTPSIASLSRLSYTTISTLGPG
As to the kind of experiment: Competitive cell-binding assay on AR42J cells with 125I-C3 as competitive ligand. Conditions: AR42J cells, 125I-C3 competitive ligand, 37° C. 1 h; read-out: CCK2R/IC50. In short, it runs like this:
(§3)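 Rat AR42J cells (1~3×10^6 cells/mL) in RPMI-1640 with 0.25% BSA incubated with 125I-C1 or 125I-C3 (0.02 μCi/well) plus test compound (0-10000 nM) for 1 h at 37° C., n=3. Unbound ligand removed by filtration; bound radioactivity γ-counted; IC50 by nonlinear regression.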

For data set [4], the target named is T4, SSTR2 (Rattus norvegicus, UniProt P30680).
T4 construct: host or cells: AR42J cells
T4 sequence (P30680 whole entry): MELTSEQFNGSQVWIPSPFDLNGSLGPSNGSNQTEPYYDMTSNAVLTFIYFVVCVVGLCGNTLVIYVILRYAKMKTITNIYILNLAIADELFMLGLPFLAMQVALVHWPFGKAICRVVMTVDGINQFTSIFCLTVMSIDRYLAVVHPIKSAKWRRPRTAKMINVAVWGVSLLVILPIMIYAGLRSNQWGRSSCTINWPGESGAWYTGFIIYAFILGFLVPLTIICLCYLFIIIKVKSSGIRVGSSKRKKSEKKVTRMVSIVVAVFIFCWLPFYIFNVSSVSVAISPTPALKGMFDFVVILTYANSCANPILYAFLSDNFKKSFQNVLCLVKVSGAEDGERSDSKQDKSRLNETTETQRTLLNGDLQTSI
As to the kind of experiment: Competitive cell-binding assay on AR42J cells with 125I-C1 as competitive ligand. Conditions: AR42J cells, 125I-C1 competitive ligand, 37° C. 1 h; read-out: SSTR2/IC50. In short, it runs like this: as §3

For data set [5], the target named is T1, CCK2R. As to the kind of experiment: Competitive binding (FACS) on CCK2R-transfected HEK 293T cells with Cy5-labeled Z360. Conditions: HEK 293T transfected, Cy5-labeled Z360 competitive ligand (Table 3). On the procedure:
as §1, §2

Data set [6] in a line: in vivo. Conditions: BALB/c nude, mouse, in vivo, iv, total radioactivity. In short, it runs like this: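 Compounds labelled with ^177Lu in 0.5 M NaOAc pH 4.5 at 95° C for 15 min, then used directly or diluted in PBS with 3 mg/mL ascorbate. BALB/c nude mice bore subcutaneous AR42J flank xenografts (0.05-0.50 g). Organs excised at 4, 24 and 72 h post-injection and γ-counted for % ID and % ID/g.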

Where [7] appears, read: HEK 293T transfected, read-out: CCK2R IC50.

Regarding `C[C@@H](O)[C@H](NC(=O)[C@@H]1CSSC[C@H](NC(=O)[C@@H](Cc2ccccc2)C(=O)C(=O)COCCOCCNC(=O)[C@H](CCCCCC(=O)COCCOCCNC(=O)[C@H](Cc2c[nH]cn2)NC(=O)[C@H](CCC(=O)O)NC(=O)c2cccc(NC(=O)N[C@@H]3CN(C4CCCCC4)c4ccccc4N(CC(=O)C(C)(C)C)C3=O)c2)NC(=O)CN2CCN(CC(=O)O)CCN(CC(=O)O)CCN(CC(=O)O)CC2)C(=O)N[C@@H](Cc2ccc(O)cc2)C(=O)N[C@H](Cc2c[nH]c3ccccc23)C(=O)N[C@@H](CCCCN)C(=O)N[C@@H]([C@@H](C)O)C(=O)C1)C(=O)O` [Compound I-79, DOTA- K(-OEG- His- Glu- Z360)- OEG- f[CYwKTC]T- OH], the IC50 came out at 16.5 nM in data set [1] (CCK2R IC50, HEK 293T transfected) and 6.75 nM in data set [2].

`C[C@@H](O)[C@H](NC(=O)[C@@H]1CSSC[C@H](NC(=O)[C@@H](Cc2ccccc2)C(=O)C(=O)COCCOCCNC(=O)[C@H](CCCCCC(=O)COCCOCCNC(=O)COCCOCCCC(=O)[C@H](CCC(=O)O)NC(=O)c2cccc(NC(=O)NN3CCc4ccccc4N(CC(=O)C(C)(C)C)C3=O)c2)NC(=O)CN2CCN(CC(=O)O)CCN(CC(=O)O)CCN(CC(=O)O)CC2)C(=O)N[C@@H](Cc2ccc(O)cc2)C(=O)N[C@H](Cc2c[nH]c3ccccc23)C(=O)N[C@@H](CCCCN)C(=O)N[C@@H]([C@@H](C)O)C(=O)C1)C(=O)O` [Compound I-76, DOTA-K(-OEG-OEG-Glu-Z360)-OEG-f[CYwKTC]T-OH]: the results for the IC50 in data set [1] (setting [7]) and in data set [2] were 11.2 nM and 5.44 nM, respectively.

As to `CC(=O)[C@H](Cc1ccc(O)cc1)NC(=O)[C@H](CSSC[C@H](NC(=O)[C@@H](NC(=O)[C@H](CCCCN)NC(=O)[C@H](N)Cc1c[nH]c2ccccc12)[C@@H](C)O)C(=O)N[C@H](C(C)=O)[C@@H](C)O)NC(=O)C(Cc1ccccc1)NC(=O)COCCOCCNC(=O)COCCOCCNC(=O)CC[C@H](NC(=O)C(CCC(=O)O)NC(=O)[C@H](CCCCNC(=O)c1cccc(NC(=O)N[C@@H]2CN(C3CCCCC3)c3ccccc3N(CC(=O)C(C)(C)C)C2=O)c1)NC(=O)CN1CCN(CC(=O)O)CCN(CC(=O)O)CCN(CC(=O)O)CC1)C(=O)O` (stereo partly drawn) [Compound I-75, DOTA-K(Z360)-Glu-gGlu-OEG-OEG-f[CYwKTC]T-OH] (I: {DOTA}-K([3Abz-CO-X1])[ξE][γGlu][AEEA][AEEA][ξF]C-X2 / II: H-[dW]KTC-X3; disulfide I:7-II:4), the figures for the IC50 in data set [1] (setting [7]) and in data set [2] were 126 nM and 9.36 nM, respectively.

In the case of `C[C@@H](O)[C@H](NC(=O)[C@@H]1CSSC[C@H](NC(=O)[C@@H](Cc2ccccc2)C(=O)C(=O)COCCOCCNC(=O)[C@H](CCCCCC(=O)COCCOCCNC(=O)CC[C@H](NC(=O)[C@H](CN)NC(=O)c2cccc(NC(=O)NN3CC(C4CCCCC4)c4ccccc4N(CC(=O)C(C)(C)C)C3=O)c2)C(=O)O)NC(=O)CN2CCN(CC(=O)O)CCN(CC(=O)O)CCN(CC(=O)O)CC2)C(=O)N[C@@H](Cc2ccc(O)cc2)C(=O)N[C@H](Cc2c[nH]c3ccccc23)C(=O)N[C@@H](CCCCN)C(=O)N[C@@H]([C@@H](C)O)C(=O)C1)C(=O)O` (stereo partly drawn) [Compound I-78, DOTA- K(-OEG- gGlu- Dap- Z360)- OEG- f[CYwKTC]T- OH], the figures for the IC50 in data set [1] (setting [7]) and in data set [2] were 30.5 nM and 6.13 nM, respectively.

Regarding `C[C@@H](O)[C@H](NC(=O)[C@@H]1CSSC[C@H](NC(=O)[C@@H](Cc2ccccc2)C(=O)C(=O)COCCOCCNC(=O)[C@H](CCCCCC(=O)COCCOCCNC(=O)CC[C@H](NC(=O)[C@H](CO)NC(=O)c2cccc(NC(=O)NN3CC(C4CCCCC4)c4ccccc4N(CC(=O)C(C)(C)C)C3=O)c2)C(=O)O)NC(=O)CN2CCN(CC(=O)O)CCN(CC(=O)O)CCN(CC(=O)O)CC2)C(=O)N[C@@H](Cc2ccc(O)cc2)C(=O)N[C@H](Cc2c[nH]c3ccccc23)C(=O)N[C@@H](CCCCN)C(=O)N[C@@H]([C@@H](C)O)C(=O)C1)C(=O)O` (stereo partly drawn) [Compound I-77, DOTA- K(-OEG- gGlu- Ser- Z360)- OEG- f]CYwKTC]T- OH], the values for the IC50 in data set [1] (setting [7]) and in data set [2] were 19.4 nM and 4.77 nM, respectively.

Regarding `C[C@@H](O)[C@H](NC(=O)[C@@H]1CSSC[C@H](NC(=O)[C@@H](Cc2ccccc2)NC(=O)COCCOCCNC(=O)[C@H](CCCCNC(=O)c2cccc(NC(=O)N[C@@H]3CN(C4CCCCC4)c4ccccc4N(CC(=O)C(C)(C)C)C3=O)c2)NC(=O)CN2CCN(CC(=O)O)CCN(CC(=O)O)CCN(CC(=O)O)CC2)C(=O)N[C@@H](Cc2ccc(O)cc2)C(=O)N[C@H](Cc2c[nH]c3ccccc23)C(=O)N[C@@H](CCCCN)C(=O)N[C@@H]([C@@H](C)O)C(=O)N1)C(=O)O` [Compound I-37, DOTA-K(Z360)-OEG-f[CYwKTC]T-OH], the IC50 in data set [3] was found to be 4.2 nM; in data set [4], 3.01 nM; in data set [5], 10.7 nM. The tissue uptake at 24 h in data set [6] (uptake Kidney) is 7.79 %ID/g; in data set [6] (uptake Liver) it was 2.4 %ID/g; in data set [6] (uptake Pancreas), 0.68 %ID/g; in data set [6] (uptake Spleen) it was 0.2 %ID/g; in data set [6] (uptake Stomach), 2.58 %ID/g; in data set [6] (uptake Tumor), 23.1 %ID/g.

With `C[C@@H](O)[C@H](NC(=O)[C@@H]1CSSC[C@H](NC(=O)[C@@H](Cc2ccccc2)C(=O)C(=O)COCCOCCNC(=O)[C@H](CCCCCC(=O)COCCOCCNC(=O)COCCOCCNC(=O)C(Cc2ccc(C(=O)O)cc2)NC(=O)c2cccc(NC(=O)NN3CC(C4CCCCC4)c4ccccc4N(CC(=O)C(C)(C)C)C3=O)c2)NC(=O)CN2CCN(CC(=O)O)CCN(CC(=O)O)CCN(CC(=O)O)CC2)C(=O)N[C@@H](Cc2ccc(O)cc2)C(=O)N[C@H](Cc2c[nH]c3ccccc23)C(=O)N[C@@H](CCCCN)C(=O)N[C@@H]([C@@H](C)O)C(=O)C1)C(=O)O` (stereo partly drawn) [Compound I-80, DOTA-K(-OEG-OEG-Cbp-Z360)-OEG-f[CYwKTC]T-OH], the figures for the IC50 in data set [1] (setting [7]) and in data set [2] were 24.2 nM and 5.03 nM, respectively.

The tissue uptake is the percentage of the injected dose found per gram of tissue.
